Source: patent US20260297042A1, “BIARYLAMIDE DERIVATIVES AND THEIR USE AS PKMYT1 INHIBITORS” (CANCER RESEARCH TECHNOLOGY LIMITED, priority 2023, published 2026)

Legend:
WEE1 = target: T1, WEE1 (Homo sapiens, UniProt P30291); experiment: Selectivity versus WEE1 assay (ADP-Glo enzymatic assay); format: biochemical; conditions: banded; for IC50: ADP-Glo, 15 nM WEE1, 60 minutes at 26° C.; for PKMYT1 vs. WEE1 selectivity: fold difference in selectivity for PKMYT1 over WEE1, ">N" = at least in this band but could be higher
T1 construct: purchased Thermo Fisher PR7373A
T1 sequence (P30291 whole entry): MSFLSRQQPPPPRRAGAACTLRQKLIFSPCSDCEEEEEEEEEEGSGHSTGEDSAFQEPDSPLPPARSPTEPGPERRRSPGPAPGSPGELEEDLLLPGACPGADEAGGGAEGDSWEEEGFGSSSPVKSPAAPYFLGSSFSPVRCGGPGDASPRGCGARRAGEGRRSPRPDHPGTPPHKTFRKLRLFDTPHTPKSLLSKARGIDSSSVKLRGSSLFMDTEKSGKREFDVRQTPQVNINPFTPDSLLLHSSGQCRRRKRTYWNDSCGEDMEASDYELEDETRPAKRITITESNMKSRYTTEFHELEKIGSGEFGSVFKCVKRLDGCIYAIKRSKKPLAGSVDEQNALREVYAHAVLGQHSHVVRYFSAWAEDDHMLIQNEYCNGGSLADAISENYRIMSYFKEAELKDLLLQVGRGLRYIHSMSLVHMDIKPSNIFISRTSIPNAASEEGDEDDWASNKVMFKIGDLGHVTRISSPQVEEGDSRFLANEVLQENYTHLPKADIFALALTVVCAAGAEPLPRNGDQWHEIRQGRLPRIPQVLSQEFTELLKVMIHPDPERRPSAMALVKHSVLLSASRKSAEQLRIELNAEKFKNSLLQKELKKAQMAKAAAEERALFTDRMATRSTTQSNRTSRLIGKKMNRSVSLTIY
Procedure, shortened: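 WEE1 at 15 nM final in 50 mM HEPES pH 7.5, 10 mM MgCl2, 1 mM EGTA, 0.01% Brij-35, 1% DMSO; reaction started with 30 µM ATP, 60 min at 26 °C. ADP-Glo luminescence; IC50 from dose-response curves, replicates within 3-fold and r2 >0.9.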

Human PKMYT1 = target: T2, Human PKMYT1 (Homo sapiens, UniProt Q99640); experiment: PKMYT1 biochemical ADP-Glo enzymatic assay; conditions: ADP-Glo; 15 nM PKMYT1 kinase domain, 500 µM ATP, 60 minutes at 26° C.; banded
T2 construct: Human PKMYT1 75-362 was cloned as a TEV cleavable 6xHis fusion; 6xHis (TEV cleavable) (cleaved yes); made in house; host or cells: bacterial cells
T2 sequence (Q99640 75-362): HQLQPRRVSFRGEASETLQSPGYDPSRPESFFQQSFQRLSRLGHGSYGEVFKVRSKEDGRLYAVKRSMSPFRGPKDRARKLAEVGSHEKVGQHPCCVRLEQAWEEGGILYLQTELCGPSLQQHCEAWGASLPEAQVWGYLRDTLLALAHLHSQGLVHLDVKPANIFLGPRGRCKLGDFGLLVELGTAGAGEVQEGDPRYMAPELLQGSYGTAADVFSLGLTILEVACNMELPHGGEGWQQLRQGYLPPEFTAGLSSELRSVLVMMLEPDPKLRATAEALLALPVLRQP
Procedure, shortened: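 Purified untagged human PKMYT1 75-362 at 15 nM final was tested in HEPES pH 7.5 with MgCl2, EGTA, Brij-35 and 1% DMSO. Intrinsic ATPase activity was measured with 500 uM ATP over 60 min at 26° C. ADP-Glo luminescence was read and IC50 fitted from 10-point, 3-fold dilution curves.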

KYSE-30 cells [1] = experiment: Cancer cell line proliferation assay, nuclear count, KYSE-30 (normal CCNE1); format: cell-based; conditions: Homo sapiens, normal CCNE1 expression, banded, read-out: KYSE30 GI50
Method: (§1) h-TERT-RPE1 TP53−/− and CCNE1 high expressing clones (clone cell lines 7 and 15) were treated with test compounds dissolved in DMSO at serially diluted concentrations alongside a DMSO only control for around 6 population doublings time. Cells were then fixed with 4% Paraformaldehyde and the cell nuclei were stained with DAPI (Sigma D9542). Images covering each well were acquired by an Opera Phenix® High-Content Screening System (PerkinElmer). Image analysis was performed using Harmony® high-content analysis software (PerkinElmer). Data analysis was performed using Microsoft Excel® and GI50 estimates generated with GraphPad Prism v9. Percent nuclear count was compared to vehicle control wells and used to measure inhibition of proliferation.
(§2) Cancer cell lines with either normal (KYSE-30) or amplified CCNE1 expression (OVCAR3-ovarian cancer) were evaluated for their sensitivity to PKMYT1 inhibitors in a nuclear count assay as described above for h-TERT-RPE1 TP53−/− and a CCNE1 high expressing clones, taking into account the slower cell cycle division times of these lines.

OVCAR3 cells = experiment: Cancer cell line proliferation assay, nuclear count, OVCAR3 (CCNE1-amplified); format: cell-based; conditions: banded; for Selectivity ratio KYSE30 GI50 vs. OVCAR3 GI50: >N = at least in this band; for GI50: Homo sapiens, OVCAR-3, CCNE1-amplified ovarian cancer, nuclear count
Method: as §1, §2

[2] = target: T3, Cellular PKMYT1 Biomarker CDK1 pT14 (Homo sapiens, UniProt Q99640); experiment: Inhibition of cellular PKMYT1 biomarker CDK1 pT14 in OVCAR 3 cells (immunoblot); format: cell-based; conditions: 20 hours incubation
T3 construct: read-out CDK1 phospho-T14 immunoblot
T3 sequence (Q99640 1-499): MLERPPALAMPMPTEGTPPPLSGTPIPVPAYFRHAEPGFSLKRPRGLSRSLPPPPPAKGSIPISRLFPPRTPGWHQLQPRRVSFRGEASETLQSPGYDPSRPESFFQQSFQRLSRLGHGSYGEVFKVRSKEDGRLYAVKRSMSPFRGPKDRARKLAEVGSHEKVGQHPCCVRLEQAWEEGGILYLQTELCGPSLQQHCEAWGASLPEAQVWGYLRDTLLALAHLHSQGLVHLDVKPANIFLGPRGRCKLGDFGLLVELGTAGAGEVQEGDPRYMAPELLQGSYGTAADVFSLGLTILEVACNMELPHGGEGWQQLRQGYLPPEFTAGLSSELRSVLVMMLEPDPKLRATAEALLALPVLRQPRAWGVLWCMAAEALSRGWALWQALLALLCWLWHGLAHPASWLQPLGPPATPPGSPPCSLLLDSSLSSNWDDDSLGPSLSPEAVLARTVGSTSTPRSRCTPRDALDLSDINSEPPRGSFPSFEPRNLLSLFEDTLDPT
Procedure, shortened: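 Confluent OVCAR 3 cells treated with a compound concentration range for 20 h at 37 °C. Lysates analysed by automated capillary immunoblot for CDK1 phospho-T14, with vinculin, fluorescence detection; IC50 by regression.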

[3] = system: h-TERT-RPE1 TP53−/− parental cells; experiment: Nuclear count cell proliferation assay, parental (wild type) h-TERT-RPE1 TP53−/− cells; format: cell-based; conditions: hTERT-RPE1, h-TERT-RPE1 TP53−/− parental (Wt), around 6 population doublings, banded, read-out: RPE Wt GI50
Method: as §1

[4] = system: h-TERT-RPE1 TP53−/− CCNE1 high expressing clone cell line 15 (CL15); experiment: Nuclear count cell proliferation assay, CCNE1 high expressing clone cell line 15 (CL15) of h-TERT-RPE1 TP53−/−; format: cell-based; conditions: banded; for Selectivity Ratio Wt vs. CL15: GI50 ratio RPE Wt vs. CL15, >N = at least in this band; for GI50: h-TERT-RPE1 TP53−/− CCNE1 high clone CL15, nuclear count, around 6 population doublings, read-out: RPE CL15 GI50
Method: as §1

[5] = system: h-TERT-RPE1 TP53−/− CCNE1 high expressing clone cell line 7 (CL7); experiment: Nuclear count cell proliferation assay, CCNE1 high expressing clone cell line 7 (CL7) of h-TERT-RPE1 TP53−/−; format: cell-based; conditions: banded; for Selectivity Ratio Wt vs. CL7: GI50 ratio RPE Wt vs. CL7, >N = at least in this band; for GI50: hTERT-RPE1, h-TERT-RPE1 TP53−/− CCNE1 high clone CL7, nuclear count, around 6 population doublings, read-out: RPE CL7 GI50
Method: as §1

KYSE-30 cells [6] = experiment: Cancer cell line proliferation assay, ATP-based cell viability (Cell Titre Glow), KYSE-30 (normal CCNE1); conditions: Homo sapiens, KYSE-30 cells (normal CCNE1), concentration that achieves 50% cell growth proliferation inhibition, read-out: KYSE30 Gl50
Procedure, shortened: (§3)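 Proliferation of KYSE-30 (normal CCNE1) and CCNE1-amplified OVCAR 3 ovarian cancer cells treated with PKMYT1 inhibitors, read by Cell Titre Glow luminescence. GI50 is the concentration giving 50% growth inhibition.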

OVCAR 3 cells = experiment: Cancer cell line proliferation assay, ATP-based cell viability (Cell Titre Glow), OVCAR 3 (CCNE1-amplified); conditions: KYSE30 (normal CCNE1) GI50 vs. OVCAR 3 (CCNE1-amplified) GI50
Procedure, shortened: as §3

SMILES	IC50 (WEE1)	PKMYT1 vs. WEE1 selectivity (WEE1)	IC50 (Human PKMYT1)	GI50 (OVCAR3 cells)	IC50 [2]	GI50 (KYSE-30 cells [1])	Selectivity ratio KYSE30 GI50 vs. OVCAR3 GI50 (OVCAR3 cells)	GI50 [3]	Selectivity Ratio Wt vs. CL15 [4]	GI50 [4]	Selectivity Ratio Wt vs. CL7 [5]	GI50 [5]	GI50 (KYSE-30 cells [6])	Selectivity ratio KYSE30 Gl50 vs. OVCAR3 Gl50 (OVCAR 3 cells)
Cc1ccc(O)c(C)c1NC(=O)c1cnc(Nc2cc(C(F)(F)F)nn2C)s1 [BAA-046, N-(3-hydroxy-2,6-dimethyl-phenyl)-2-[[2-methyl-5-(trifluoromethyl)pyrazol-3-yl]amino]thiazole-5-carboxamide]	> 11 µM	>X (100-<1000 fold)	0.05 to 1 µM	0.5 to 3 µM	–	3 to 10 µM	X (3-<10 fold)	–	–	–	–	–	–	–
Cc1ccc(O)c(C)c1NC(=O)c1cnc(Nc2cc(C(F)(F)F)n(C)n2)s1 [BAA-047]	> 11 µM	>X (100-<1000 fold)	0.05 to 1 µM	0.5 to 3 µM	0.1 to 1 µM	3 to 10 µM	X (3-<10 fold)	–	–	–	–	–	–	–
Cc1ccc(O)c(C)c1NC(=O)c1cnc(NC2CC2)s1 [BAA-061, 2-(cyclopropylamino)-N-(3-hydroxy-2,6-dimethyl-phenyl)thiazole-5-carboxamide]	> 11 µM	X (100-<1000 fold)	0.05 to 1 µM	–	–	–	–	3 to 10 µM	X (3-<10 fold)	0.5 to 3 µM	–	–	–	–
CCOC(=O)c1cn(C)nc1Nc1ncc(C(=O)Nc2c(C)ccc(O)c2C)s1 [BAA-129, ethyl 3-[[5-[(3-hydroxy-2,6-dimethyl-phenyl)carbamoyl]thiazol-2-yl]amino]-1-methyl-pyrazole-4-carboxylate]	> 11 µM	>Y (1000-5000 fold)	0.05 to 1 µM	–	–	–	–	> 10 µM	X (3-<10 fold)	0.5 to 3 µM	–	–	–	–
Cc1ccc(O)c(C)c1NC(=O)c1cnc(Nc2ccn(CC(=O)N3CCCC3)n2)s1 [BAA-148, N-(3-hydroxy-2,6-dimethyl-phenyl)-2-[[1-(2-oxo-2-pyrrolidin-1-yl-ethyl)pyrazol-3-yl]amino]thiazole-5-carboxamide]	> 11 µM	Y (1000-5000 fold)	< 0.05 µM	3 to 10 µM	–	> 10 µM	X (3-<10 fold)	0.5 to 3 µM	X (3-<10 fold)	0.5 to 3 µM	–	–	–	–
CCN(CC)C(=O)Cn1ccc(Nc2ncc(C(=O)Nc3c(C)ccc(O)c3C)s2)n1 [BAA-173, 2-[[1-[2-(diethylamino)-2-oxo-ethyl]pyrazol-3-yl]amino]-N-(3-hydroxy-2,6-dimethyl-phenyl)thiazole-5-carboxamide]	> 11 µM	Y (1000-5000 fold)	< 0.05 µM	3 to 10 µM	–	> 10 µM	>X (3-<10 fold)	0.5 to 3 µM	–	–	X (3-<10 fold)	< 0.5 µM	–	–
Cc1ccc(O)c(C)c1NC(=O)c1cnc(Nc2ccn(CC(=O)N3CC4CCC(C3)N4)n2)s1 [BAA-230, 2-((1-(2-(3,8-diazabicyclo[3.2.1]octan-3-yl)-2-oxoethyl)-1H-pyrazol-3-yl)amino)-N-(3-hydroxy-2,6-dimethylphenyl)thiazole-5-carboxamide]	> 11 µM	X (100-<1000 fold)	< 0.05 µM	–	–	–	–	> 10 µM	–	–	X (3-<10 fold)	3 to 10 µM	–	–

The next lines start with results.

IC50 (WEE1)	PKMYT1 vs. WEE1 selectivity (WEE1)	IC50 (Human PKMYT1)	GI50 (OVCAR3 cells)	IC50 [2]	SMILES	GI50 (KYSE-30 cells [1])	Selectivity ratio KYSE30 GI50 vs. OVCAR3 GI50 (OVCAR3 cells)	GI50 [3]	Selectivity Ratio Wt vs. CL15 [4]	GI50 [4]	Selectivity Ratio Wt vs. CL7 [5]	GI50 [5]	GI50 (KYSE-30 cells [6])	Selectivity ratio KYSE30 Gl50 vs. OVCAR3 Gl50 (OVCAR 3 cells)
1 to 11 µM	X (100-<1000 fold)	< 0.05 µM	–	–	Cc1ccc(O)c(C)c1NC(=O)c1cnc(Nc2ccn(CC(=O)NC3CCN(C(=O)OC(C)(C)C)CC3)n2)s1 [BAA-152]	–	–	> 10 µM	X (3-<10 fold)	0.5 to 3 µM	–	–	–	–
1 to 11 µM	X (100-<1000 fold)	< 0.05 µM	< 0.5 µM	–	Cc1ccc(O)c(C)c1NC(=O)c1cnc(Nc2ccn(CC(=O)N3CCN(C(=O)OC(C)(C)C)C(C)(C)C3)n2)s1 [BAA-179, tert-butyl 4-[2-[3-[[5-[(3-hydroxy-2,6-dimethyl-phenyl)carbamoyl]thiazol-2-yl]amino]pyrazol-1-yl]acetyl]-2,2-dimethyl-piperazine-1-carboxylate]	> 10 µM	Z (>30 fold)	3 to 10 µM	Y (10-30 fold)	< 0.5 µM	–	–	–	–
1 to 11 µM	Y (1000-5000 fold)	< 0.05 µM	0.5 to 3 µM	–	CCNC(=O)Cn1cc(C)c(Nc2ncc(C(=O)Nc3c(C)ccc(O)c3C)s2)n1 [BAA-206, 2-[[1-[2-(ethylamino)-2-oxo-ethyl]-4-methyl-pyrazol-3-yl]amino]-N-(3-hydroxy-2,6-dimethyl-phenyl)thiazole-5-carboxamide]	> 10 µM	>Y (10-30 fold)	–	–	–	–	–	–	–
1 to 11 µM	X (100-<1000 fold)	< 0.05 µM	< 0.5 µM	–	Cc1cn(CC(=O)N2CCCC2)nc1Nc1ncc(C(=O)Nc2c(C)ccc(O)c2C)s1 [BAA-208, N-(3-hydroxy-2,6-dimethyl-phenyl)-2-[[4-methyl-1-(2-oxo-2-pyrrolidin-1-yl-ethyl)pyrazol-3-yl]amino]thiazole-5-carboxamide]	> 10 µM	Z (>30 fold)	–	–	–	–	–	> 5 µM	Y (>20 fold)
